Assay results: patent US7575930B2, “Method for analyzing oligosaccharides from blood plasma” (priority 2005, dated 2009)

Assay: Monitoring of the plasma concentration of the main oligosaccharides of a VLMWH in human volunteers (plasma filtration + anion-exchange HPLC)
Assay type: in vivo
Description: A plasma sample with a volume of between 100 and 1000 μl is withdrawn and, if appropriate, the internal standard is added to the latter.
After homogenization, the resulting solution is introduced into a 30 kD Ultrafree 05 ultrafiltration cartridge (Millipore) rinsed beforehand with 250 μl of water by centrifuging at 10 000 rev/min for 5 minutes. The plasma is introduced into the upper part of the cartridge once or twice, if the amounts to be filtered are greater than 500 μl.
The cartridge is centrifuged at 10 000 rev/min for between 1 and 2 hours and then the filtrate is withdrawn. If appropriate, the second part of the plasma to be filtered is introduced into the upper part of the cartridge and the latter is again centrifuged. The exact amount of plasma introduced will have been weighed. The cartridge is centrifuged until the protein residue in the upper part of the cartridge represents no more than approximately 10% of the initial part.
The filtrate is withdrawn and 210 μl of 3M KCl per ml of plasma filtered are added to the concentrate.
After homogenization, the cartridge is centrifuged at 10 000 rev/min for between 1 and 4 hours. The cartridge is centrifuged until the protein residue in the upper part of the cartridge represents no more than approximately 10% of the initial part.
The second filtrate is withdrawn and 210 μl of 3M KCl per ml of plasma filtered are added a second time to the concentrate.
The third filtrate is withdrawn and 250 μl of water per ml of plasma filtered are added.
The filtrates are combined and diluted 5 fold in water, and the whole is injected directly in anion-exchange HPLC. Immediately before injection, the pH of the injected solution is adjusted to 3 by addition of 1N HCl.
The filtered plasma is analyzed by anion-exchange HPLC.
The columns used are IonPAc As11 columns (Dionex), with a length of 25 cm and an internal diameter of 2 mm. The detector used is a UV spectrophotometer equipped with an array of diodes.
The whole of the […] is injected after adjustment of the pH to 3 by addition of N HCl. The flow rate chosen is 0.22 ml/min; the column temperature is 40° C.
Elution is carried out in gradient mode. The two solutions used are:
Solvent A: NaH2PO4 2.5 mM, brought to pH 2.9 by addition of H3PO4
Solvent B: NaClO4 1N, NaH2PO4 2.5 mM, brought to pH 3.0 by addition of H3PO4
The elution gradient is as follows:
T=0 min: % B=3; T=40 min: % B=60; T=60 min: % B=80
A VLMWH with an average molecular weight of 2500 Da is administered at the target dose of 1.4 mg/kg to human volunteers. Blood samples are withdrawn at the times 0, 0.25 h, 0.5 h, 0.75 h, 1 h, 1.25 h, 1.5 h, 2 h, 2.5 h, 3 h, 3.5 h, 4 h, 4.5 h, 5 h, 6 h, 7 h, 8 h, 9 h, 10 h, 12 h, 14 h and 24 h after administration.
As the VLMWH used is a complex mixture of oligosaccharides, the study was limited to certain components chosen from this mixture.

[1] = 0 h after administration of VLMWH (2500 Da) 1.4 mg/kg
[2] = 0.25 h after administration of VLMWH (2500 Da) 1.4 mg/kg
[3] = 0.5 h after administration of VLMWH (2500 Da) 1.4 mg/kg
[4] = 0.75 h after administration of VLMWH (2500 Da) 1.4 mg/kg
[5] = 1 h after administration of VLMWH (2500 Da) 1.4 mg/kg
[6] = 1.25 h after administration of VLMWH (2500 Da) 1.4 mg/kg
[7] = 1.5 h after administration of VLMWH (2500 Da) 1.4 mg/kg
[8] = 2 h after administration of VLMWH (2500 Da) 1.4 mg/kg
[9] = 2.5 h after administration of VLMWH (2500 Da) 1.4 mg/kg
[10] = 3 h after administration of VLMWH (2500 Da) 1.4 mg/kg
[11] = 3.5 h after administration of VLMWH (2500 Da) 1.4 mg/kg
[12] = 4 h after administration of VLMWH (2500 Da) 1.4 mg/kg
[13] = 4.5 h after administration of VLMWH (2500 Da) 1.4 mg/kg
[14] = 5 h after administration of VLMWH (2500 Da) 1.4 mg/kg
[15] = 6 h after administration of VLMWH (2500 Da) 1.4 mg/kg
[16] = 7 h after administration of VLMWH (2500 Da) 1.4 mg/kg
[17] = 8 h after administration of VLMWH (2500 Da) 1.4 mg/kg
[18] = 9 h after administration of VLMWH (2500 Da) 1.4 mg/kg
[19] = 10 h after administration of VLMWH (2500 Da) 1.4 mg/kg
[20] = 12 h after administration of VLMWH (2500 Da) 1.4 mg/kg
[21] = 14 h after administration of VLMWH (2500 Da) 1.4 mg/kg

plasma concentration [1] [nM] | plasma concentration [2] [nM] | plasma concentration [3] [nM] | plasma concentration [4] [nM] | plasma concentration [5] [nM] | plasma concentration [6] [nM] | plasma concentration [7] [nM] | plasma concentration [8] [nM] | plasma concentration [9] [nM] | plasma concentration [10] [nM] | plasma concentration [11] [nM] | plasma concentration [12] [nM] | plasma concentration [13] [nM] | plasma concentration [14] [nM] | plasma concentration [15] [nM] | plasma concentration [16] [nM] | plasma concentration [17] [nM] | plasma concentration [18] [nM] | plasma concentration [19] [nM] | plasma concentration [20] [nM] | SMILES | also measured
0 | 240 | 300 | 260 | 230 | 200 | 190 | 160 | 110 | 100 | 80 | 70 | 60 | 40 | 30 | 30 | 20 | 10 | 10 | 0 | O=C(O)C1=CC(O)C(OS(=O)(=O)O)C(OC2C(COS(=O)(=O)O)OC(O)C(NS(=O)(=O)O)C2O)O1 (stereo not shown) [ΔIs] | plasma concentration [21]: 0 nM
0 | 20 | 40 | 30 | 40 | 40 | 30 | 30 | 20 | 20 | 20 | 10 | 10 | 10 | 10 | 10 | 0 | 0 | 0 | 0 | O=C(O)C1=CC(O)C(OS(=O)(=O)O)C(OC2C(COS(=O)(=O)O)OC(OC3C(C(=O)O)OC(OC4C(COS(=O)(=O)O)OC(OC5C(C(=O)O)OC(OC6C(COS(=O)(=O)O)OC(O)C(NS(=O)(=O)O)C6O)C(OS(=O)(=O)O)C5O)C(NS(=O)(=O)O)C4O)C(OS(=O)(=O)O)C3O)C(NS(=O)(=O)O)C2O)O1 (stereo not shown) [ΔIsIsIs] | plasma concentration [21]: 0 nM
0 | 50 | 100 | 100 | 100 | 120 | 110 | 110 | 90 | 80 | 90 | 100 | 100 | 90 | 80 | 100 | 70 | 70 | 70 | 80 | CC(=O)NC1C(OC2C(C(=O)O)OC(OC3C(COS(=O)(=O)O)OC(OC4C(C(=O)O)OC(OC5C(COS(=O)(=O)O)OC(O)C(NS(=O)(=O)O)C5O)C(OS(=O)(=O)O)C4O)C(NS(=O)(=O)O)C3OS(=O)(=O)O)C(O)C2O)OC(COS(=O)(=O)O)C(OC2OC(C(=O)O)=CC(O)C2O)C1O (stereo not shown) [ΔIIaIIsIs] | plasma concentration [21]: 70 nM; plasma concentration (24 h after administration of VLMWH (2500 Da) 1.4 mg/kg): 50 nM
